# Laboratory results from patent US20190374576A1, “VIRAL METHODS OF T CELL THERAPY” (Intima Bioscience, Inc., priority 2016, published 2019).
# B1: CTLA4 gRNA#3: sense primer (SEQ ID printed 'Si') … (nucleic acid)
# guide: GCTAGATGATTCCATCTGCACGUUUUAGAGCUAGAAAUAGCAAGUUAAAAUAAGGCUAGUCCGUUAUCAACUUGAAAAAGUGGCACCGAGUCGGUGCUUUU
# modifications: 2'-O-methyl 3'-phosphorothioate modifications added, positions not given here
# Columns and labels:
# Test in all cases: Validation of gRNAs: Surveyor digest, gel electrophoresis, densitometry in HEK293T cells
# Type in all cases: cell-based, human
# CCR5 = CCR5 target gene site, 3 days
# Procedure: (§1) HEK293T cells were plated out at a density of 1×10^5 cells per well in a 24 well plate. 150 uL of Opti-MEM medium was combined with 1.5 ug of gRNA plasmid, 1.5 ug of Cas9 plasmid. Another 150 uL of Opti-MEM medium was combined with 5 ul of Lipofectamine 2000 Transfection reagent (Invitrogen). The solutions were combined together and incubated for 15 minutes at room temperature. The DNA-lipid complex was added dropwise to wells of the 24 well plates. Cells were incubated for 3 days at 37° C. and genomic DNA was collected using the GeneJET Genomic DNA Purification Kit (Thermo Scientific). Activity of the gRNAs was quantified by a Surveyor Digest, gel electrophoresis, and densitometry (FIG. 60 and FIG. 61) (Guschin, D. Y., et al., “A Rapid and General Assay for Monitoring Endogenous Gene Modification,” Methods in Molecular Biology, 649: 247-256 (2010)).
# PD1 = PD1 target gene site, 3 days
# Procedure: HEK293T cells were plated out at a density of 1×10^5 cells per well in a 24 well plate. 150 uL of Opti-MEM medium was combined with 1.5 ug of gRNA plasmid, 1.5 ug of Cas9 plasmid. Another 150 uL of Opti-MEM medium was combined with 5 ul of Lipofectamine 2000 Transfection reagent (Invitrogen). The solutions were combined together and incubated for 15 minutes at room temperature. […] Cells were incubated for 3 days at 37° C. and genomic DNA was collected using the GeneJET Genomic DNA Purification Kit (Thermo Scientific). Activity of the gRNAs was quantified by a Surveyor Digest, gel electrophoresis, and densitometry (FIG. 60 and FIG. 61) (Guschin, D. Y., et al., “A Rapid and General Assay for Monitoring Endogenous Gene Modification,” Methods in Molecular Biology, 649: 247-256 (2010)).
# CTLA4 = CTLA4 target gene site, 3 days
# Procedure: as §1
molecule,measurement,setting,value
CCR5 gRNA#2: sense primer SEQ ID 63 CACCGTCATCCTCCTGACAATCGAT,"efficiency of Cas9/gRNA pair in creating double strand break (DSB), percent of gene modifications",CCR5,>60%
PD1 gRNA#2: sense primer SEQ ID 35 CACCGCCTGCTCGTGGTGACCGAAG,"efficiency of Cas9/gRNA pair in creating double strand break (DSB), percent of gene modifications",PD1,>60%
B1,"efficiency of Cas9/gRNA pair in creating double strand break (DSB), percent of gene modifications",CTLA4,39.33%
